# According to article PMC11678426, “Phytochemical Study and In Vitro Antioxidant Activity of Helianthemum cinereum Along with Antitumor Activity of the Isolated trans-Tiliroside and Luteolin 4′-O-β-Xyloside” (Molecules, 2024):
# Several values for one entry are separate records, joined by “and”; a condition that tells them apart may be missing. Equal values may be shown once.
# Legend:
# [1] = DPPH radical scavenging capacity
# Procedure: Different concentrations of H. cinereum extract were prepared in methanol and aliquots of 100 μL were added to 3.5 mL of DPPH (Sigma-Aldrich, Steinheim, Germany) solution (30 μg/g in methanol). A blank consisting of DPPH solution without extract was prepared. All samples were kept in darkness for 15 min. Then, the absorbance was measured against a blank (Methanol) at 515 nm in a UV-Vis spectrophotometer (UV 1700, Shimadzu, Japan). The DPPH solution was daily prepared and the concentration was checked using a calibration curve obtained by preparation of serial concentrations (4, 8, 16, 32 and 64 μg/g). […] The obtained IC50 value is inversely proportional to the antioxidant activity.
# [2] = set-up: method as in doi:10.3390/app7040400; settings: cited from earlier work
# IL-5 = test system: IL-5; set-up: method as in PMID 10418337; settings: from Kummerowia striata; cited from earlier work
# A375 melanoma cell line = assay: Cell viability by MTT assay, A375; assay type: cell-based; settings: for concentrations giving significant decrease in cell viability: 72 h
# Procedure: (§1) The immortalized human keratinocytes HaCaT cells were obtained from Cell Lines Services (Eppelheim, Germany). The A549 cell lines were acquired from the European Collection of Authenticated Cell Cultures (ECACC) and supplied by Sigma-Aldrich (St. Louis, MO, USA), the A375 cell lines were acquired from ATCC and supplied by LGC Standards (Barcelona, Spain), and Mia PaCa-2 and Panc-1 cell lines were kindly provided by Dr. Sónia Melo […], Porto, Portugal). […] Cells were cultured at 5% CO2 and at 37 °C. A stock solution was made by dissolving trans-tiliroside or luteolin 4'-O-β-xyloside in dimethyl sulfoxide (DMSO, Sigma-Aldrich, St. Louis, MO, USA). All cell lines were seeded in 96-well plates at a density of 12,500 cells/mL and incubated for 24 h for adhesion. […] After the exposure, cell viability was assessed by 3-(4,5-dimethyl-2-thiazolyl)-2,5-diphenyl-2H-tetrazolium bromide (MTT, Sigma-Aldrich, St. Louis, MO, USA) assay. Briefly, the exposure medium was replaced by fresh medium and 50 μL of MTT (1.0 mg/mL dissolved in phosphate-buffered saline, PBS, PAN-Biotech, Aidenbach, Germany) and plates were incubated for 3 h. Then, the medium was removed and 150 μL of DMSO was added and plates were shaken in the dark for 1 h. The absorbance was read in a microplate reader BioTek Synergy HT plate reader at 570 nm. Cells with only medium without compounds were used as control. Three independent assays were completed with three replicates each. Cell viability was further calculated using the Equation (3):(3) Cell Viability % of control=Sample Absorbance-Blank Absorbance/Control Absorbance-Blank Absorbance×100
# [3] = test system: Mia PaCa-2 pancreatic cancer cell line; assay: Cell viability by MTT assay, Mia PaCa-2; assay type: cell-based; settings: Mia PaCa-2, MTT; for IC50: Homo sapiens, 72 h exposure
# Procedure: as §1
# [4] = ABTS radical scavenging assay
# Procedure: The ABTS radical scavenging activity of H. cinereum extracts was assessed according to the method described by. Firstly, 1 mL of ABTS (Sigma-Aldrich, Steinheim, Germany) stock solution (7 mM) was mixed with 88 μL of potassium persulfate solution (140 mM) and kept overnight protected from light and at room temperature. Next, the mixture was diluted with potassium buffer saline (0.2 M, pH 7.4) to obtain an ABTS solution with an absorbance of 0.70 ± 0.02 at 734 nm. […] The reaction took place in the dark for 6 min, and the absorbance at 734 nm was measured. Samples containing the same volume of methanol and the same dilution of ascorbic acid served as white and positive controls, respectively. […] A2 is the solvent and sample mixture absorbance and A0 is the absorbance of the solvent and ABTS radical mixture.
# [5] = test system: pancreatic cancer cell lines; set-up: method as in PMID 26527884; settings: cited from earlier work
# A549 cell line = test system: A549 cell line; set-up: method as in PMID 20589534, PMID 29393891; settings: cited from earlier work
# Panc-1 cells [6] = assay: Cell cycle analysis by flow cytometry, Panc-1; assay type: cell-based; settings: Panc-1, IC50 concentration (54 μM), 72 h
# Procedure: (§2) Cells were seeded in 12-well plates as described before. […] Then, cells were collected, washed with PBS, fixed with 85% ethanol and stored at −20 °C until analysis. For analysis, cells were washed, resuspended in PBS and filtered to Eppendorf tubes. Samples were incubated with 50 μL of RNAse (Sigma-Aldrich, St. Louis, MO, USA) for 10 min and next with 50 μL of propidium iodide (PI, ≥94%; Sigma-Aldrich, St. Louis, MO, USA) for 20 min. Cells were analyzed with an Attune® Acoustic Focusing Cytometer (Applied Biosystems, Termo Fischer Scientific, Agawam, MA, USA) and the percentages of cells at each phase of the cell cycle were determined using the FlowJo software V10.7.1 (FlowJo LLC, Ashland, OR, USA). Two independent assays with two replicates each were performed, with at least 5000 events.
# HaCaT cells = assay: Cell cycle analysis by flow cytometry, HaCaT; assay type: cell-based, human; settings: IC50 concentration (122 μM), 72 h
# Procedure: as §2
# Mia PaCa-2 cells = assay: Cell cycle analysis by flow cytometry, Mia PaCa-2; assay type: cell-based; settings: Mia PaCa-2, IC50 concentration (46.2 μM), 72 h
# Procedure: as §2
# A549 cells = assay: Cell cycle analysis by flow cytometry, A549; assay type: cell-based; settings: A549, IC50 concentration (108 μM), 72 h
# Procedure: as §2
# [7] = test system: Panc-1 pancreatic cancer cell line; assay: Cell viability by MTT assay, Panc-1; assay type: cell-based; settings: Panc-1, MTT
# Procedure: as §1, with “Then, the medium was removed and 150 μL of DMSO was added and plates were shaken in the dark for 1 h.” left out, “Cells with only medium without compounds were used as control. Three independent assays were completed with three replicates each.” left out
# [8] = test system: immortalized human keratinocytes HaCaT; assay: Cell viability by MTT assay, HaCaT; assay type: cell-based; settings: 72 h exposure
# Procedure: as §1, with “Then, the medium was removed and 150 μL of DMSO was added and plates were shaken in the dark for 1 h.” left out, “Cells with only medium without compounds were used as control. Three independent assays were completed with three replicates each.” left out
# A375 cells = assay: Cell cycle analysis by flow cytometry, A375; assay type: cell-based; settings: A375, IC50 concentration (102 μM), 72 h
# Procedure: as §2
# Panc-1 cells [9] = test system: Panc-1 cells; set-up: method as in PMID 38412575; settings: 72 h of exposure; read-out: IC50 growth of Panc-1 cells; cited from earlier work
# [10] = test system: B16-F10 cells, melanoma cell line; set-up: method as in earlier work; settings: 168 μM, 72 h; ref 41 (Lu et al. 2009); cited from earlier work
# [11] = test system: A549 lung cancer cell line; assay: Cell viability by MTT assay, A549; assay type: cell-based
# Procedure: as §1, with “Then, the medium was removed and 150 μL of DMSO was added and plates were shaken in the dark for 1 h.” left out, “Cells with only medium without compounds were used as control. Three independent assays were completed with three replicates each.” left out
smiles,measurement,setting,value
O=C1O[C@H]([C@@H](O)CO)C(O)=C1O [Ascorbic acid],DPPH (IC50),[1],3.36 ± 0.13 µg/g
"COc1cc2c(=O)oc3c(OC)c(OS(=O)(=O)O)cc4c(=O)oc(c1OC)c2c34 [Compound 12, 3,3′,4′-tri-O-methyl-ellagic acid 4-sulfate]",cytotoxic effect,[2],cytotoxic effect
"O=c1cc(-c2ccc(OC3OC(CO)C(O)C(O)C3O)c(O)c2)oc2cc(O)cc(O)c12 (stereo not drawn) [Luteolin 4′-O-glucoside, luteolin 4′-O-β-glucoside]",IL-5 inhibition,IL-5,IL-5 inhibitor
"O=c1cc(-c2ccc(OC3OCC(O)C(O)C3O)c(O)c2)oc2cc(O)cc(O)c12 (stereo not drawn) [Luteolin 4′-O-β-xyloside, luteolin 4′-O-β-xyloside]",concentrations giving significant decrease in cell viability,A375 melanoma cell line,up to 75 μM
same,IC50,[3],229 ± 9.09 µM
Cc1c(C)c2c(c(C)c1O)CCC(C)(C(=O)O)O2 (centres unmarked) [Trolox],DPPH (IC50),[1],12 ± 0.41 µg/mL
same,ABTS (IC50),[4],23.2 ± 0.54 µg/mL
"O=c1cc(-c2ccc(O)c(O)c2)oc2cc(O)cc(O)c12 [luteolin aglycone, luteolin]",concentrations strongly affecting pancreatic cancer cell lines,[5],above 160 μM
same,IC50,A549 cell line,32.6 µM and 40 µM
"O=C(/C=C/c1ccc(O)cc1)OC[C@H]1O[C@@H](Oc2c(-c3ccc(O)cc3)oc3cc(O)cc(O)c3c2=O)[C@H](O)[C@@H](O)[C@@H]1O [trans-tiliroside, kaempferol-3-O-[6″-O-(E)-p-coumaroyl]-β-D-glucoside]",effect on cell cycle dynamics,Panc-1 cells [6],no alterations on the cell cycle dynamics
same,effect on cell cycle dynamics,HaCaT cells,no alterations on the cell cycle dynamics
same,concentrations giving significant decrease in cell viability,A375 melanoma cell line,≥ 75 µM
same,IC50,"A375 melanoma cell line; Homo sapiens, A-375, 72 h exposure",102 ± 2.56 µM
same,increase of cells at G2/M phase compared to the control,Mia PaCa-2 cells,3.9%
same,increase of cells at the S phase compared to the control,Mia PaCa-2 cells,5.6%
same,IC50,[3],46.2 ± 0.89 µM
same,concentrations affecting cell viability,[3]; 72 h,≥ 50 µM
same,effect on cell cycle dynamics,A549 cells,no alterations on the cell cycle dynamics
same,IC50,"[7]; Homo sapiens, 72 h exposure",54 ± 1.95 µM
same,concentration causing decline of cell viability,[7]; 72 h,10 µM
same,IC50,[8],122 ± 1.8 µM
same,effect on cell cycle dynamics,A375 cells,no alterations on the cell cycle dynamics
same,IC50,Panc-1 cells [9],68.5 µM
same,decline in the viability of B16-F10 cells,[10],80%
same,concentrations giving significant decrease in cell viability,[11]; 72 h,≥ 75 µM
same,IC50,"[11]; Homo sapiens, 72 h exposure",108 ± 2.8 µM
